Experimental data as given in patent publication US12544395B2, “Combination compositions comprising a beta-lactamase inhibitor and uses thereof” (priority 2018, dated 2026).

What was measured:
K. pneumoniae ESBL 7 #1 = assay: Broth microdilution MIC (strain enzymes: SHV-12, TEM-1); format: cell-based; conditions: with inhibitor at 4 μg/mL
K. pneumoniae ESBL 8 #2 = assay: as above; format: cell-based
K. pneumoniae ESBL 7 #2 = assay: Broth microdilution MIC (strain enzymes: SHV-12, CTX-M15, TEM-1); format: cell-based
K. pneumoniae KI (KCl) = assay: Broth microdilution MIC (strain enzymes: TEM-10); format: cell-based
K. pneumoniae KP 3 = assay: Broth microdilution MIC (strain enzymes: SHV-1, TEM-1); format: cell-based
K. pneumoniae KP 8 = assay: Broth microdilution MIC (strain enzymes: TEM-10, TEM-1, CTX-M15); format: cell-based
K. pneumoniae SI-KP NO30 = assay: Broth microdilution MIC (strain enzymes: TEM-26b, SHV-60, SHV-26); format: cell-based
K. pneumoniae BAA 1705 = assay: Broth microdilution MIC (strain KPC-producing); format: cell-based
[1] = system: panel of ESBL-producing Enterobacteriaceae (40 strains); assay: Broth microdilution MIC50/MIC90 summary over the panel; format: cell-based
[2] = system: E. coli expressing TEM-1+CTX-M-15, CTX-M-15, and KPC-2+SHV-12; assay: Murine ascending UTI model, three strains; format: in vivo, mice; conditions: added to ceftibuten at 3, 10, 30, 100, and 300 mg/kg, SC every 12 hours for 3 days
[3] = system: three strains of E. coli expressing TEM-1+CTX-M-15, CTX-M-15, and KPC-2+SHV-12; assay: MIC against the UTI test strains; format: cell-based; conditions: with Compound 2 at a fixed concentration of 4 μg/mL
[4] = system: 21 strains of Enterobacteriaceae expressing various beta-lactamases; assay: MIC testing of thigh model strains; format: cell-based; conditions: with Compound 2 fixed at 4 mg/L

CCC(=O)N[C@H]1Cc2cccc(C(=O)O)c2OB1O [Compound 2, (R)-2-hydroxy-3-propionamido-3,4-dihydro-2H-benzo[e][1,2]oxaborinine-8-carboxylic acid]
MIC of ceftibuten (CTB) (K. pneumoniae ESBL 7 #1): 0.125 µg/mL
MIC of cefalexin (LEX) (K. pneumoniae ESBL 8 #2; with inhibitor at 1 μg/mL): 0.5 µg/mL
MIC of cefdinir (CDR) (K. pneumoniae ESBL 8 #2; with inhibitor at 1 μg/mL): 0.5 µg/mL
MIC of cefixime (CFM) (K. pneumoniae ESBL 8 #2; with inhibitor at 1 μg/mL): 2 µg/mL
MIC of ceftibuten (CTB) (K. pneumoniae ESBL 8 #2; with inhibitor at 1 μg/mL): 0.125 µg/mL
MIC of cefalexin (LEX) (K. pneumoniae ESBL 8 #2; with inhibitor at 2 μg/mL): 0.25 µg/mL
MIC of cefdinir (CDR) (K. pneumoniae ESBL 8 #2; with inhibitor at 2 μg/mL): 0.25 µg/mL
MIC of cefixime (CFM) (K. pneumoniae ESBL 8 #2; with inhibitor at 2 μg/mL): 1 µg/mL
MIC of ceftibuten (CTB) (K. pneumoniae ESBL 8 #2; with inhibitor at 2 μg/mL): 0.125 µg/mL
MIC of cefalexin (LEX) (K. pneumoniae ESBL 8 #2; with inhibitor at 4 μg/mL): 0.25 µg/mL
MIC of cefdinir (CDR) (K. pneumoniae ESBL 8 #2; with inhibitor at 4 μg/mL): 0.25 µg/mL
MIC of cefixime (CFM) (K. pneumoniae ESBL 8 #2; with inhibitor at 4 μg/mL): 0.5 µg/mL
MIC of ceftibuten (CTB) (K. pneumoniae ESBL 8 #2; with inhibitor at 4 μg/mL): 0.06 µg/mL
MIC of cefalexin (LEX) (K. pneumoniae ESBL 7 #2; with inhibitor at 1 μg/mL): >32 µg/mL
MIC of cefdinir (CDR) (K. pneumoniae ESBL 7 #2; with inhibitor at 1 μg/mL): >32 µg/mL
MIC of cefixime (CFM) (K. pneumoniae ESBL 7 #2; with inhibitor at 1 μg/mL): 8 µg/mL
MIC of ceftibuten (CTB) (K. pneumoniae ESBL 7 #2; with inhibitor at 1 μg/mL): 4 µg/mL
MIC of cefalexin (LEX) (K. pneumoniae ESBL 7 #2; with inhibitor at 2 μg/mL): 32 µg/mL
MIC of cefdinir (CDR) (K. pneumoniae ESBL 7 #2; with inhibitor at 2 μg/mL): 32 µg/mL
MIC of cefixime (CFM) (K. pneumoniae ESBL 7 #2; with inhibitor at 2 μg/mL): 8 µg/mL
MIC of ceftibuten (CTB) (K. pneumoniae ESBL 7 #2; with inhibitor at 2 μg/mL): 2 µg/mL
MIC of cefalexin (LEX) (K. pneumoniae ESBL 7 #2; with inhibitor at 4 μg/mL): 16 µg/mL
MIC of cefdinir (CDR) (K. pneumoniae ESBL 7 #2; with inhibitor at 4 μg/mL): 16 µg/mL
MIC of cefixime (CFM) (K. pneumoniae ESBL 7 #2; with inhibitor at 4 μg/mL): 1 µg/mL
MIC of ceftibuten (CTB) (K. pneumoniae ESBL 7 #2; with inhibitor at 4 μg/mL): 1 µg/mL
MIC of cefalexin (LEX) (K. pneumoniae KI (KCl); with inhibitor at 1 μg/mL): 0.125 µg/mL
MIC of cefdinir (CDR) (K. pneumoniae KI (KCl); with inhibitor at 1 μg/mL): 0.125 µg/mL
MIC of cefixime (CFM) (K. pneumoniae KI (KCl); with inhibitor at 1 μg/mL): 1 µg/mL
MIC of ceftibuten (CTB) (K. pneumoniae KI (KCl); with inhibitor at 1 μg/mL): 0.125 µg/mL
MIC of cefalexin (LEX) (K. pneumoniae KI (KCl); with inhibitor at 2 μg/mL): 0.125 µg/mL
MIC of cefdinir (CDR) (K. pneumoniae KI (KCl); with inhibitor at 2 μg/mL): 0.125 µg/mL
MIC of cefixime (CFM) (K. pneumoniae KI (KCl); with inhibitor at 2 μg/mL): 1 µg/mL
MIC of ceftibuten (CTB) (K. pneumoniae KI (KCl); with inhibitor at 2 μg/mL): 0.06 µg/mL
MIC of cefalexin (LEX) (K. pneumoniae KI (KCl); with inhibitor at 4 μg/mL): 0.125 µg/mL
MIC of cefdinir (CDR) (K. pneumoniae KI (KCl); with inhibitor at 4 μg/mL): 0.125 µg/mL
MIC of cefixime (CFM) (K. pneumoniae KI (KCl); with inhibitor at 4 μg/mL): 0.25 µg/mL
MIC of ceftibuten (CTB) (K. pneumoniae KI (KCl); with inhibitor at 4 μg/mL): 0.125 µg/mL
MIC of cefalexin (LEX) (K. pneumoniae KP 3; with inhibitor at 1 μg/mL): 0.5 µg/mL
MIC of cefdinir (CDR) (K. pneumoniae KP 3; with inhibitor at 1 μg/mL): 0.5 µg/mL
MIC of cefixime (CFM) (K. pneumoniae KP 3; with inhibitor at 1 μg/mL): 4 µg/mL
MIC of ceftibuten (CTB) (K. pneumoniae KP 3; with inhibitor at 1 μg/mL): 0.25 µg/mL
MIC of cefalexin (LEX) (K. pneumoniae KP 3; with inhibitor at 2 μg/mL): 0.25 µg/mL
MIC of cefdinir (CDR) (K. pneumoniae KP 3; with inhibitor at 2 μg/mL): 0.25 µg/mL
MIC of cefixime (CFM) (K. pneumoniae KP 3; with inhibitor at 2 μg/mL): 4 µg/mL
MIC of ceftibuten (CTB) (K. pneumoniae KP 3; with inhibitor at 2 μg/mL): 0.25 µg/mL
MIC of cefalexin (LEX) (K. pneumoniae KP 3; with inhibitor at 4 μg/mL): 0.5 µg/mL
MIC of cefdinir (CDR) (K. pneumoniae KP 3; with inhibitor at 4 μg/mL): 0.5 µg/mL
MIC of cefixime (CFM) (K. pneumoniae KP 3; with inhibitor at 4 μg/mL): 2 µg/mL
MIC of ceftibuten (CTB) (K. pneumoniae KP 3; with inhibitor at 4 μg/mL): 0.125 µg/mL
MIC of cefalexin (LEX) (K. pneumoniae KP 8; with inhibitor at 1 μg/mL): 0.25 µg/mL
MIC of cefdinir (CDR) (K. pneumoniae KP 8; with inhibitor at 1 μg/mL): 0.25 µg/mL
MIC of cefixime (CFM) (K. pneumoniae KP 8; with inhibitor at 1 μg/mL): 0.25 µg/mL
MIC of ceftibuten (CTB) (K. pneumoniae KP 8; with inhibitor at 1 μg/mL): 0.06 µg/mL
MIC of cefalexin (LEX) (K. pneumoniae KP 8; with inhibitor at 2 μg/mL): 0.125 µg/mL
MIC of cefdinir (CDR) (K. pneumoniae KP 8; with inhibitor at 2 μg/mL): 0.125 µg/mL
MIC of cefixime (CFM) (K. pneumoniae KP 8; with inhibitor at 2 μg/mL): 0.125 µg/mL
MIC of ceftibuten (CTB) (K. pneumoniae KP 8; with inhibitor at 2 μg/mL): 0.03 µg/mL
MIC of cefalexin (LEX) (K. pneumoniae KP 8; with inhibitor at 4 μg/mL): 0.125 µg/mL
MIC of cefdinir (CDR) (K. pneumoniae KP 8; with inhibitor at 4 μg/mL): 0.125 µg/mL
MIC of cefixime (CFM) (K. pneumoniae KP 8; with inhibitor at 4 μg/mL): 0.125 µg/mL
MIC of ceftibuten (CTB) (K. pneumoniae KP 8; with inhibitor at 4 μg/mL): 0.03 µg/mL
MIC of cefalexin (LEX) (K. pneumoniae SI-KP NO30; with inhibitor at 1 μg/mL): 0.125 µg/mL
MIC of cefdinir (CDR) (K. pneumoniae SI-KP NO30; with inhibitor at 1 μg/mL): 0.125 µg/mL
MIC of cefixime (CFM) (K. pneumoniae SI-KP NO30; with inhibitor at 1 μg/mL): 0.5 µg/mL
MIC of ceftibuten (CTB) (K. pneumoniae SI-KP NO30; with inhibitor at 1 μg/mL): 0.06 µg/mL
MIC of cefalexin (LEX) (K. pneumoniae SI-KP NO30; with inhibitor at 2 μg/mL): 0.25 µg/mL
MIC of cefdinir (CDR) (K. pneumoniae SI-KP NO30; with inhibitor at 2 μg/mL): 0.25 µg/mL
MIC of cefixime (CFM) (K. pneumoniae SI-KP NO30; with inhibitor at 2 μg/mL): 0.25 µg/mL
MIC of ceftibuten (CTB) (K. pneumoniae SI-KP NO30; with inhibitor at 2 μg/mL): 0.06 µg/mL
MIC of cefalexin (LEX) (K. pneumoniae SI-KP NO30; with inhibitor at 4 μg/mL): 0.125 µg/mL
MIC of cefdinir (CDR) (K. pneumoniae SI-KP NO30; with inhibitor at 4 μg/mL): 0.125 µg/mL
MIC of cefixime (CFM) (K. pneumoniae SI-KP NO30; with inhibitor at 4 μg/mL): 0.25 µg/mL
MIC of ceftibuten (CTB) (K. pneumoniae SI-KP NO30; with inhibitor at 4 μg/mL): 0.06 µg/mL
MIC of cefalexin (LEX) (K. pneumoniae BAA 1705; with inhibitor at 1 μg/mL): 4 µg/mL
MIC of cefdinir (CDR) (K. pneumoniae BAA 1705; with inhibitor at 1 μg/mL): 4 µg/mL
MIC of cefixime (CFM) (K. pneumoniae BAA 1705; with inhibitor at 1 μg/mL): 0.5 µg/mL
MIC of ceftibuten (CTB) (K. pneumoniae BAA 1705; with inhibitor at 1 μg/mL): 0.5 µg/mL
MIC of cefalexin (LEX) (K. pneumoniae BAA 1705; with inhibitor at 2 μg/mL): 2 µg/mL
MIC of cefdinir (CDR) (K. pneumoniae BAA 1705; with inhibitor at 2 μg/mL): 2 µg/mL
MIC of cefixime (CFM) (K. pneumoniae BAA 1705; with inhibitor at 2 μg/mL): 0.5 µg/mL
MIC of ceftibuten (CTB) (K. pneumoniae BAA 1705; with inhibitor at 2 μg/mL): 0.5 µg/mL
MIC of cefalexin (LEX) (K. pneumoniae BAA 1705; with inhibitor at 4 μg/mL): 1 µg/mL
MIC of cefdinir (CDR) (K. pneumoniae BAA 1705; with inhibitor at 4 μg/mL): 1 µg/mL
MIC of cefixime (CFM) (K. pneumoniae BAA 1705; with inhibitor at 4 μg/mL): 0.25 µg/mL
MIC of ceftibuten (CTB) (K. pneumoniae BAA 1705; with inhibitor at 4 μg/mL): 0.25 µg/mL
Cefdinir MIC50 ([1]; with inhibitor at 1 μg/mL): 0.5 µg/mL
Cefdinir MIC90 ([1]; with inhibitor at 1 μg/mL): 4 µg/mL
Cefixime MIC50 ([1]; with inhibitor at 1 μg/mL): 1 µg/mL
Cefixime MIC90 ([1]; with inhibitor at 1 μg/mL): 4 µg/mL
Cefpodoxime MIC50 ([1]; with inhibitor at 1 μg/mL): 1 µg/mL
Cefpodoxime MIC90 ([1]; with inhibitor at 1 μg/mL): 8 µg/mL
Ceftibuten MIC50 ([1]; with inhibitor at 1 μg/mL): 0.125 µg/mL
Ceftibuten MIC90 ([1]; with inhibitor at 1 μg/mL): 0.5 µg/mL
Cephalexin MIC50 ([1]; with inhibitor at 1 μg/mL): 8 µg/mL
Cephalexin MIC90 ([1]; with inhibitor at 1 μg/mL): 32 µg/mL
Cefdinir MIC50 ([1]; with inhibitor at 2 μg/mL): 0.5 µg/mL
Cefdinir MIC90 ([1]; with inhibitor at 2 μg/mL): 2 µg/mL
Cefixime MIC50 ([1]; with inhibitor at 2 μg/mL): 0.5 µg/mL
Cefixime MIC90 ([1]; with inhibitor at 2 μg/mL): 4 µg/mL
Cefpodoxime MIC50 ([1]; with inhibitor at 2 μg/mL): 1 µg/mL
Cefpodoxime MIC90 ([1]; with inhibitor at 2 μg/mL): 2 µg/mL
Ceftibuten MIC50 ([1]; with inhibitor at 2 μg/mL): 0.125 µg/mL
Ceftibuten MIC90 ([1]; with inhibitor at 2 μg/mL): 0.25 µg/mL
Cephalexin MIC50 ([1]; with inhibitor at 2 μg/mL): 8 µg/mL
Cephalexin MIC90 ([1]; with inhibitor at 2 μg/mL): 32 µg/mL
Cefdinir MIC50 ([1]; with inhibitor at 4 μg/mL): 0.5 µg/mL
Cefdinir MIC90 ([1]; with inhibitor at 4 μg/mL): 2 µg/mL
Cefixime MIC50 ([1]; with inhibitor at 4 μg/mL): 0.25 µg/mL
Cefixime MIC90 ([1]; with inhibitor at 4 μg/mL): 1 µg/mL
Cefpodoxime MIC50 ([1]; with inhibitor at 4 μg/mL): 1 µg/mL
Cefpodoxime MIC90 ([1]; with inhibitor at 4 μg/mL): 2 µg/mL
Ceftibuten MIC50 ([1]; with inhibitor at 4 μg/mL): 0.125 µg/mL
Ceftibuten MIC90 ([1]; with inhibitor at 4 μg/mL): 0.25 µg/mL
Cephalexin MIC50 ([1]; with inhibitor at 4 μg/mL): 8 µg/mL
Cephalexin MIC90 ([1]; with inhibitor at 4 μg/mL): 16 µg/mL
bacterial titers lower than ceftibuten alone, bladders [2]: 3.2 log10 CFU/g
bacterial titers lower than ceftibuten alone, urine [2]: up to 4 log10 CFU/mL
ceftibuten MICs [3]: <0.06 to 0.12 µg/mL
ceftibuten MICs [4]: ≤ 2 µg/mL
